Values quoted from earlier work in patent US20070020249A1, “COMPOSITIONS FOR PREVENTION AND TREATEMENT OF SYMPTOMS OF GASTROINTESTINAL DISTRESS” (priority 2005, published 2007).

Conditions: humans; Auburn University study

Substance: oxygen-coordinated chromium polynicotinate
- reduction of LDL cholesterol, average: 14%
